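Method: 48-hour compound exposure of cells in 96-well plates, five concentrations, linear interpolation of endpoints. Definition used: TGI = concentration required for complete inhibition of growth.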
Tests used:
Assay in all cases: NCI tumour cell line growth inhibition, 48 h
[1] = system: A498 renal
[2] = system: A549 NSCLC
[3] = system: CAKI-1 renal
[4] = system: CCRF-CEM leukemia
[5] = system: COLO 205 colon
[6] = system: DLD-1 colon
[7] = system: DMS 114 small cell lung
[8] = system: DMS 273 small cell lung
[9] = system: EKVX NSCLC
[10] = system: HCC-2998 colon
[11] = system: HCT-116 colon
[12] = system: HCT-15 colon
[13] = system: HL-60(TB) leukemia
[14] = system: HOP-18 NSCLC
[15] = system: HOP-62 NSCLC
[16] = system: HOP-92 NSCLC
[17] = system: HT29 colon
[18] = system: IGROV1 ovarian
[19] = system: K-562 leukemia
[20] = system: KM12 colon
[21] = system: KM20L2 colon
[22] = system: LOX IMVI melanoma
[23] = system: M19-MEL melanoma
[24] = system: MALME-3M melanoma
[25] = system: MCF7 breast
[26] = system: NCI-H226 lung
[27] = system: NCI-H23 lung
[28] = system: NCI-H460 lung
[29] = system: NCI-H522 lung
[30] = system: NCI/ADR-RES ovarian
[31] = system: OVCAR-3 ovarian
[32] = system: OVCAR-4 ovarian
[33] = system: OVCAR-5 ovarian
[34] = system: OVCAR-8 ovarian
[35] = system: P388 leukemia
[36] = system: P388/ADR leukemia
[37] = system: RXF 393 renal
[38] = system: SF-268 CNS
[39] = system: SF-295 CNS
[40] = system: SF-539 CNS
[41] = system: SK-MEL-2 melanoma
[42] = system: SK-MEL-28 melanoma
[43] = system: SK-MEL-5 melanoma
[44] = system: SK-OV-3 ovarian
[45] = system: SN12C renal
[46] = system: SN12K1 renal
[47] = system: SNB-19 CNS
[48] = system: SNB-75 CNS
[49] = system: SNB-78 CNS
[50] = system: SW-620 colon
[51] = system: U251 CNS
[52] = system: UACC-257 melanoma
[53] = system: UACC-62 melanoma
[54] = system: UO-31 renal
[55] = system: XF 498 CNS

Q: Which results are given for `CC(C)(C)c1ccc2c(c1)OP1(Oc3cccc4cccnc34)(O2)Oc2ccc(C(C)(C)C)cc2O1`?
A: TGI [1]: 34.9 µM; TGI [2]: > 54.7 µM; TGI [3]: > 23.5 µM; TGI [4]: > 25.2 µM; TGI [5]: 9.02 µM; TGI [6]: 21.2 µM; TGI [7]: 5.97 µM; TGI [8]: 13.8 µM; TGI [9]: 35.9 µM; TGI [10]: 24.1 µM; TGI [11]: 15.2 µM; TGI [12]: 15.3 µM; TGI [13]: 6.82 µM; TGI [14]: > 60.5 µM; TGI [15]: 62.1 µM; TGI [16]: > 100 µM; TGI [17]: 15.4 µM; TGI [18]: 18.3 µM; TGI [19]: 37.5 µM; TGI [20]: 21.3 µM; TGI [21]: 15.4 µM; TGI [22]: 17.7 µM; TGI [23]: 33.5 µM; TGI [24]: 51.3 µM; TGI [25]: 5.48 µM; TGI [26]: 30.9 µM; TGI [27]: 10.2 µM; TGI [28]: 12.7 µM; TGI [29]: 26.4 µM; TGI [30]: 11.1 µM; TGI [31]: 6.44 µM; TGI [32]: 6.14 µM; TGI [33]: 32 µM; TGI [34]: > 100 µM; TGI [35]: 2.64 µM; TGI [36]: 4.69 µM; TGI [37]: 16.9 µM; TGI [38]: 26.7 µM; TGI [39]: 42.6 µM; TGI [40]: 30.2 µM; TGI [41]: 43.8 µM; TGI [42]: > 84.9 µM; TGI [43]: 13.7 µM; TGI [44]: > 92.1 µM; TGI [45]: 52.9 µM; TGI [46]: 14.2 µM; TGI [47]: > 100 µM; TGI [48]: > 54.2 µM; TGI [49]: > 100 µM; TGI [50]: > 31.8 µM; TGI [51]: 43.8 µM; TGI [52]: > 30.4 µM; TGI [53]: 12.2 µM; TGI [54]: 13.4 µM; TGI [55]: 7.56 µM

Q: How did the TGI [1] turn out when `O=C1c2cccc3cc4ccccc4c(c23)C(=O)N1CCNCCN1C(=O)c2cccc3cc4ccccc4c(c23)C1=O` was run?
A: The TGI was 2.26 µM.

Q: What about the TGI [2] of the same compound?
A: The TGI was 0.982 µM.

Q: And the TGI [3]?
A: Its TGI is 1.04 µM.

Q: And the TGI [4]?
A: Its TGI is 1.04 µM.

Q: And the TGI [5]?
A: Its TGI is 2.22 µM.

Q: And the TGI [6]?
A: The TGI was 3.8 µM.

Q: What about the TGI [7] of the same compound?
A: Its TGI is 0.78 µM.

Q: What about the TGI [8] of the same compound?
A: The TGI was 1 µM.

Q: What about the TGI [9] of the same compound?
A: Its TGI is 2.23 µM.

Q: And the TGI [10]?
A: The TGI was 2.23 µM.

Q: What about the TGI [11] of the same compound?
A: The TGI was 1.98 µM.

Q: What about the TGI [12] of the same compound?
A: The TGI was 1.53 µM.

Q: And the TGI [13]?
A: Its TGI is 0.619 µM.

Q: And the TGI [14]?
A: The TGI was 0.879 µM.

Q: And the TGI [15]?
A: The TGI was 4.92 µM.

Q: And the TGI [16]?
A: Its TGI is 1.75 µM.

Q: And the TGI [17]?
A: Its TGI is 1.69 µM.

Q: What about the TGI [18] of the same compound?
A: Its TGI is 3.56 µM.

Q: And the TGI [19]?
A: Its TGI is 1.47 µM.

Q: And the TGI [21]?
A: Its TGI is 2.22 µM.

Q: And the TGI [22]?
A: Its TGI is 1.27 µM.

Q: And the TGI [23]?
A: Its TGI is 1.78 µM.

Q: And the TGI [24]?
A: Its TGI is 1.77 µM.

Q: And the TGI [25]?
A: The TGI was 5.17 µM.

Q: And the TGI [26]?
A: The TGI was 6.12 µM.

Q: What about the TGI [27] of the same compound?
A: The TGI was 1.21 µM.

Q: What about the TGI [28] of the same compound?
A: The TGI was 0.278 µM.

Q: And the TGI [29]?
A: The TGI was 3.6 µM.

Q: What about the TGI [30] of the same compound?
A: Its TGI is 3.11 µM.

Q: What about the TGI [31] of the same compound?
A: The TGI was 2.41 µM.

Q: What about the TGI [32] of the same compound?
A: Its TGI is 2.14 µM.

Q: And the TGI [33]?
A: Its TGI is 1.77 µM.

Q: What about the TGI [34] of the same compound?
A: Its TGI is 2.31 µM.

Q: What about the TGI [36] of the same compound?
A: The TGI was 0.611 µM.

Q: And the TGI [37]?
A: Its TGI is 1.82 µM.

Q: And the TGI [38]?
A: The TGI was 2.55 µM.

Q: What about the TGI [39] of the same compound?
A: Its TGI is 0.906 µM.

Q: What about the TGI [40] of the same compound?
A: The TGI was 2.2 µM.

Q: What about the TGI [41] of the same compound?
A: The TGI was 3.15 µM.

Q: And the TGI [42]?
A: Its TGI is 2.65 µM.

Q: And the TGI [43]?
A: Its TGI is 1.84 µM.

Q: And the TGI [44]?
A: The TGI was 5.8 µM.

Q: What about the TGI [45] of the same compound?
A: Its TGI is 1.59 µM.

Q: What about the TGI [46] of the same compound?
A: Its TGI is 6.96 µM.

Q: What about the TGI [47] of the same compound?
A: Its TGI is 2.11 µM.

Q: What about the TGI [48] of the same compound?
A: The TGI was 1.27 µM.

Q: And the TGI [49]?
A: Its TGI is 1.82 µM.

Q: What about the TGI [50] of the same compound?
A: The TGI was 1.87 µM.

Q: What about the TGI [51] of the same compound?
A: The TGI was 1.24 µM.

Q: And the TGI [52]?
A: Its TGI is 2.74 µM.

Q: And the TGI [53]?
A: The TGI was 1.13 µM.

Q: What about the TGI [54] of the same compound?
A: Its TGI is 1.57 µM.

Q: What about the TGI [55] of the same compound?
A: Its TGI is 0.82 µM.

Reference: PubChem BioAssay (NCI)
